# Assay results published in patent US11667652B2, “MCL1 inhibitors” (Gilead Sciences, Inc., priority 2019, dated 2023).
# Tested on: SKBR3 cells
# Assay: SKBR3 Cell Viability Assay
# Assay type: cell-based
# Conditions: 72 hours, CellTiter Glo, read-out: MCL1 CV SKBR3 EC50
# Method: SKBR3 Cell Viability Assay Materials
# SKBR3 Cells (ATCC HTB-30) were obtained from ATCC (Manassas, Va.) and cultured in McCoy 5A's medium (ATCC 30-2007)+10% fetal bovine serum (SH30071.03, HyClone, Pittsburgh, Pa.) plus 1× Penicillin-Streptomycin L-glutamine (Corning 30-009-CI, Corning, N.Y.).
# The cell viability assay was conducted in a 384-well tissue culture plate (Grenier 781086, Monroe, N.C.) in a total volume of 70 μL. Test compounds were prepared in 1,000×, serially diluted, and pre-spotted into 384-well tissue culture plate by Echo 555 Liquid Handler (Labcyte Inc., San Jose, Calif.). Seventy μL of 6,000 SKBR3 cells were dispensed into each well of the plate and incubated at 37° C. with 5% CO2 for 72 hours. At the end of incubation, 2× CellTiter Glo (CTG) reagents (1 part buffer with 2 parts substrate) (Promega, Madison, Wis.) were prepared, and the plate and the reagent were equilibrated to room temperature for 30 minutes. CTG reagent was added to each plate by Biomek FX at 20 μL/well with 5 times pipetting and mixing to induce cell lysis. Luminescence was read by Envision multimode reader (PerkinElmer). Percent inhibition was calculated as followed: % Inhibition=100%*(Well−Neg)/(Pos−Neg) Neg, negative control, DMSO Pos, positive control, 10 μM Puromycin
row,Structure (SMILES),EC50
1,COc1nn(C)cc1C(=O)N[S@]1(=O)=NC(=O)c2ccc3c(c2)N(C[C@@H]2CC[C@H]2C(=O)/C=C/C[C@H](C)C1)C[C@@]1(CCCc2cc(Cl)ccc21)CO3 [Example 47],81.9 nM

# Same assay, conditions: Homo sapiens, SK-BR-3, 72 hours, CellTiter Glo, read-out: MCL1 CV SKBR3 EC50
row,Structure (SMILES),EC50
1,CO[C@H]1/C=C/C[C@H](C)C[S@@](=O)(NC(=O)c2cc3n(c2)CCOC3)=NC(=O)c2ccc3c(c2)N(C[C@@H]2CC[C@H]21)C[C@]1(CO3)C[C@@H]2C[C@@H]2c2cc(Cl)ccc21 [Example 168],94 nM
2,CO[C@H]1/C=C/C[C@H](C)C[S@@](=O)(Nc2nc(Cl)nc3cn(C)nc23)=NC(=O)c2ccc3c(c2)N(C[C@@H]2CC[C@H]21)C[C@@]1(CCCc2cc(Cl)ccc21)CO3 [Example 16],8140 nM

# Biological target: MCL1/Bim (Homo sapiens (Human), UniProt Q07820)
# Sequence (Q07820 171-327): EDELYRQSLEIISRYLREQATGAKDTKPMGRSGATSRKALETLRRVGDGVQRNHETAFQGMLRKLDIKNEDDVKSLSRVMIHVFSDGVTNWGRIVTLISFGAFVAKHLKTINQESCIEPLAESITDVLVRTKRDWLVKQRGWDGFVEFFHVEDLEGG
# Assay: MCL1/Bim Binding AlphaLISA Assay
# Conditions: recombinant human 6xHis-MCL1 (171-327), biotinylated Bim peptide (51-76)
# Method: MCL1/Bim Binding AlphaLISA Assay.
# Inhibition of the MCL1 and Bim interaction was measured in the following AlphaLISA assay.
# Recombinant human MCL1 protein (C-terminal 6×His Tagged MCL1 containing residues 171-327) was generated at Gilead Sciences, Inc. (Foster City, Calif.). A biotinylated peptide derived from human Bim (residues 51-76) was purchased from CPC Scientific (Sunnyvale, Calif.). (CPC 834113). AlphaLISA anti-6His- acceptor beads (AL128R), AlphaScreen Streptavidin donor beads (6760002B), and Proxiplate-384 Plus (6008289) were purchased from PerkinElmer.
# The AlphaLISA assay was performed in a 384-well Proxiplate in a total volume of […]. The reaction mixture contained 0.0625 nM 6×His-MCL1 (171-327), 0.0625 nM biotinylated-Bim peptide, 10 μg/mL AlphaLISA anti-6×His-AlphaLISA acceptor beads, 40 μg/mL AlphaScreen streptavidin donor beads, and serially diluted test compounds in the binding buffer (20 mM Hepes, pH 7.5 (Teknova H1035); 150 mM NaCl (Promega V4221); 0.002% Brij 35 (Thermo Scientific 20150); 1 mM Dithiothreitol (DTT) Solution (Affymetrix 70726); 0.01% BSA (BioLabs B9000S)). 1,000× test compounds were pre-spotted onto 384-well Proxiplate (Labcyte Echo) by Echo 555 Liquid Handler (Labcyte Inc., San Jose, Calif.) followed by incubation of 5 μL MCL1(171-327) for 1 hour. Then 5 μL Bim (51-76) was added and incubated for 2 hours. Five μL AlphaLISA anti-6His-AlphaLISA acceptor beads were then added for 1 hour followed by addition of 5 μL AlphaScreen streptavidin donor beads for 1 hour. The reaction plates were then read on an Envision multimode reader (PerkinElmer) using AlphaScreen settings. Percent inhibition was calculated as shown below: % Inhibition=100%*(Well−Neg)/(Pos−Neg) Neg: negative control, DMSO Pos: positive control, no MCL1 protein, no biotinylated-Bim peptide
row,Structure (SMILES),IC50
1,CO[C@H]1/C=C/C[C@H](C)C[S@@](=O)(NC(=O)c2cc3n(c2)CCOC3)=NC(=O)c2ccc3c(c2)N(C[C@@H]2CC[C@H]21)C[C@]1(CO3)C[C@@H]2C[C@@H]2c2cc(Cl)ccc21 [Example 168],0.233 nM
2,COc1nn(C)cc1C(=O)N[S@@]1(=O)=NC(=O)c2ccc3c(c2)N(C[C@@H]2CC[C@H]2[C@H](OC)[C@H](O)[C@@H](O)C[C@H](C)C1)C[C@@]1(CCCc2cc(Cl)ccc21)CO3 [Example 126],0.13 nM
3,COc1nn(C)cc1C(=O)N[S@]1(=O)=NC(=O)c2ccc3c(c2)N(C[C@@H]2CC[C@H]2C(=O)/C=C/C[C@H](C)C1)C[C@@]1(CCCc2cc(Cl)ccc21)CO3 [Example 47],0.167 nM
4,CO[C@H]1/C=C/C[C@H](C)C[S@@](=O)(Nc2nc(O)nc3nn(C)cc23)=NC(=O)c2ccc3c(c2)N(C[C@@H]2CC[C@H]21)C[C@@]1(CCCc2cc(Cl)ccc21)CO3 [Example 11],0.183 nM
5,COCCn1cc2c(N[S@@]3(=O)=NC(=O)c4ccc5c(c4)N(C[C@@H]4CC[C@H]4[C@@H](OC)/C=C/C[C@H](C)C3)C[C@@]3(CCCc4cc(Cl)ccc43)CO5)ncnc2n1 [Example 14],0.965 nM
6,CO[C@H]1/C=C/[C@H](OC)[C@H](C)C[S@@](=O)(Nc2ncnc3nn(C)cc23)=NC(=O)c2ccc3c(c2)N(C[C@@H]2CC[C@H]21)C[C@@]1(CCCc2cc(Cl)ccc21)CO3 [Example 67],0.06 nM
7,COc1nn(C)cc1C(=O)N[S@@]1(=O)=NC(=O)c2ccc3c(c2)N(C[C@@H]2CC[C@H]2[C@@H](O)C#CC[C@H](C)C1)C[C@@]1(CCCc2cc(Cl)ccc21)CO3 [Example 35],0.043 nM
8,COc1nn(C)cc1C(=O)N[S@@]1(=O)=NC(=O)c2ccc3c(c2)N(C[C@@H]2CC[C@H]2[C@@H](OC(=O)c2cn(C)nc2OC)/C=C/[C@H](O)[C@H](C)[C@H]1C)C[C@@]1(CCCc2cc(Cl)ccc21)CO3 [Example 89],0.53 nM
9,COc1nn(C)cc1C(=O)N[S@@]1(=O)=NC(=O)c2ccc3c(c2)N(C[C@@H]2CC[C@H]2[C@H](OC)C#CC[C@H](C)C1)C[C@@]1(CCCc2cc(Cl)ccc21)CO3 [Example 38],0.11 nM
10,COC[C@H]1C/C=C/[C@H](OC)[C@@H]2CC[C@H]2CN2C[C@@]3(CCCc4cc(Cl)ccc43)COc3ccc(cc32)C(=O)N=[S@@](=O)(NC(=O)COC2CCOCC2)C1 [Example 45],0.088 nM
11,CO[C@H]1/C=C/C[C@H](C)C[S@@](=O)(NC(=O)NC2CC2)=NC(=O)c2ccc3c(c2)N(C[C@@H]2CC[C@H]21)C[C@]1(CO3)SCCc2cc(Cl)ccc21 [Example 177],0.09 nM
12,CO[C@H]1CCC[C@H](C)C[S@@](=O)(Nc2ncnc3nn(C)cc23)=NC(=O)c2ccc3c(c2)N(C[C@@H]2CC[C@H]21)C[C@@]1(CCCc2cc(Cl)ccc21)CO3 [Example 28],0.12 nM
13,COc1nn(C)cc1C(=O)N[S@@]1(=O)=NC(=O)c2ccc3c(c2)N(C[C@@H]2CC[C@H]2[C@@](C)(O)/C=C/C[C@H](C)C1)C[C@@]1(CCCc2cc(Cl)ccc21)CO3 [Example 94],0.084 nM
14,CCCO[C@H]1/C=C/[C@H](OC)[C@@H]2CC[C@H]2CN2C[C@@]3(CCCc4cc(Cl)ccc43)COc3ccc(cc32)C(=O)N=[S@](=O)(NC(=O)c2cn(C)nc2OC)C[C@H]1C [Example 144],0.202 nM
15,CO[C@H]1/C=C/C[C@H](C)[C@@H](C)[S@@](=O)(NC(=O)c2cnn(C)c2)=NC(=O)c2ccc3c(c2)N(C[C@@H]2CC[C@H]21)C[C@]1(CO3)C[C@@H]2C[C@@H]2c2cc(Cl)ccc21 [Example 171],0.176 nM
16,COc1nn(C)cc1C(=O)N[S@@]1(=O)=NC(=O)c2ccc3c(c2)N(C[C@@H]2CC[C@H]2[C@@H](OC(=O)c2cn(C)nc2OC)CC[C@H](O)[C@H](C)[C@H]1C)C[C@@]1(CCCc2cc(Cl)ccc21)CO3 [Example 90],2.19 nM

row,Structure (SMILES),IC50
1,CO[C@H]1/C=C/C[C@H](C)C[S@@](=O)(Nc2nccc3nn(C)cc23)=NC(=O)c2ccc3c(c2)N(C[C@@H]2CC[C@H]21)C[C@@]1(CCCc2cc(Cl)ccc21)CO3 [Example 7],1.74 nM
2,CCn1cc(C(=O)N[S@@]2(=O)=NC(=O)c3ccc4c(n3)N(C[C@@H]3CC[C@H]3[C@@H](OC)/C=C/C[C@H](C)[C@H]2C)C[C@@]2(CCCc3cc(Cl)ccc32)CO4)cn1 [Example 199],0.17 nM
3,CO[C@H]1/C=C/C[C@H](C)[C@@H](C)[S@@](=O)(NC(=O)c2cc3n(c2)CCOC3)=NC(=O)c2ccc3c(n2)N(C[C@@H]2CC[C@H]21)C[C@@]1(CCCc2cc(Cl)ccc21)CO3 [Example 202],0.2 nM
4,CO[C@H]1/C=C/C[C@H](C)C[S@@](=O)(Nc2ncc(C#N)cn2)=NC(=O)c2ccc3c(c2)N(C[C@@H]2CC[C@H]21)C[C@@]1(CCCc2cc(Cl)ccc21)CO3 [Example 2],1.89 nM
5,CO[C@H]1/C=C/CCC[S@@](=O)(NC(=O)c2cnn(C)c2)=NC(=O)c2ccc3c(c2)N(C[C@@H]2CC[C@H]21)C[C@]1(CO3)SCCc2cc(Cl)ccc21 [Example 182],0.06 nM
6,COC[C@@H]1CC=C[C@@H](OC)[C@@H]2CC[C@H]2CN2C[C@@]3(CCCc4cc(Cl)ccc43)COc3ccc(cc32)C(=O)N=[S@](=O)(NC(=O)COC2CCOCC2)C1 [Example 44],0.648 nM
7,CO[C@H]1/C=C/C[C@H](C)C[S@@](=O)(Nc2ncccn2)=NC(=O)c2ccc3c(c2)N(C[C@@H]2CC[C@H]21)C[C@@]1(CCCc2cc(Cl)ccc21)CO3 [Example 3],0.957 nM
8,COc1nn(C)cc1C(=O)N[S@@]1(=O)=NC(=O)c2ccc3c(c2)N(C[C@@H]2CC[C@H]2[C@@H](OC)[C@H](O)[C@@H](O)C[C@H](C)C1)C[C@@]1(CCCc2cc(Cl)ccc21)CO3 [Example 125],0.051 nM
9,COc1nn(C)cc1C(=O)N[S@@]1(=O)=NC(=O)c2ccc3c(c2)N(C[C@@H]2CC[C@H]2[C@@H](OCC(O)CO)/C=C/C[C@H](C)C1)C[C@@]1(CCCc2cc(Cl)ccc21)CO3 (mixture of isomers) [Example 57],0.089 nM
10,CO[C@H]1/C=C/C[C@H](C)C[S@@](=O)(Nc2cccnn2)=NC(=O)c2ccc3c(c2)N(C[C@@H]2CC[C@H]21)C[C@@]1(CCCc2cc(Cl)ccc21)CO3 [Example 13],2.12 nM
11,COc1nn(C)cc1C(=O)N[S@@]1(=O)=NC(=O)c2ccc3c(c2)N(C[C@@H]2CC[C@H]2[C@@H](OCCN2CCN(C)CC2)/C=C/C[C@H](C)C1)C[C@@]1(CCCc2cc(Cl)ccc21)CO3 [Example 59],0.076 nM
12,COc1nn(C)cc1C(=O)N[S@@]1(=O)=NC(=O)c2ccc3c(c2)N(C[C@@H]2CC[C@H]2[C@@H](OC)/C=C/[C@H](F)[C@H](C)C1)C[C@@]1(CCCc2cc(Cl)ccc21)CO3 [Example 127],0.059 nM
13,COc1nn(C)cc1C(=O)N[S@@]1(=O)=NC(=O)c2ccc3c(c2)N(C[C@@H]2CC[C@H]2[C@@H](OC)C/C=C\[C@H](C)C1)C[C@@]1(CCCc2cc(Cl)ccc21)CO3 (mixture of isomers) [Example 128],0.562 nM
14,COc1nn(C)cc1C(=O)N[S@@]1(=O)=NC(=O)c2ccc3c(c2)N(C[C@@H]2CC[C@H]2[C@](O)(CC(=O)N2CC(N4CCOCC4)C2)/C=C/C[C@H](C)C1)C[C@@]1(CCCc2cc(Cl)ccc21)CO3 [Example 107],0.036 nM
15,CO[C@H]1/C=C/C[C@H](C)C[S@@](=O)(Nc2ncnc3nn(C)cc23)=NC(=O)c2ccc3c(n2)N(C[C@@H]2CC[C@H]21)C[C@@]1(CCCc2cc(Cl)ccc21)CO3 [Example 194],0.1 nM
